Assay results reported in PMC6753678, “Fueling Open Innovation for Malaria Transmission-Blocking Drugs: Hundreds of Molecules Targeting Early Parasite Mosquito Stages” (Frontiers in Microbiology, 2019).
Where two headings read alike, the source gives them in different places.

Legend:
[1] = system: P. berghei ookinete development; conditions: for % inhibition, Replicate A / % inhibition, Replicate B: primary screen at 1 μM
HepG2 cells = assay: HepG2 cytotoxicity assay; conditions: for IC50: read-out: HepG2 cytotoxicity assay IC50, dose response confirmation; for Pb ODA (this manuscript) HepG2 cytoxicity: HepG2 cytotoxicity listed with the Pb ODA data set (this manuscript)
Procedure, shortened: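 Percent inhibition derived from fluorescent viability readout, normalised to DMSO (negative) and 50 μM doxorubicin (positive). Compound incubation lasted 48 h at 37°C, 5% CO2, with 2,500 HepG2 cells/well in MEM plus 10% FBS and 1% NEAA.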

[2] = system: 3D7-strain P. falciparum asexual parasites; assay: P. falciparum asexual growth inhibition assay (Pf GIA); assay type: cell-based, Plasmodium falciparum; conditions: dose response confirmation; read-out: Pf asexual growth inhibition assays IC50
Procedure, shortened: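 Parasites at 0.25% parasitemia, 2% hematocrit in Albumax-supplemented RPMI were exposed to compounds in dose response for 72 h at 37°C under 5% CO2/5% O2. Viability was read as LDH activity (NBT/diaphorase, A650 after freeze-thaw). Percent inhibition was calculated against chloroquine and DMSO controls, mean of three biological replicates.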

[3] = read-out: Pb Ookinete development assay IC50, dose response confirmation
[4] = unified HepG2 value across the three screens
[5] = read-out: Pb ODA (this manuscript) IC50, P. berghei ookinete development assay, this manuscript
[6] = read-out: Pb ODA IC50, this manuscript
[7] = HepG2 values of the three screens unified

| Compound | Is compound selective in assay? Pb ODA active? ([1]; 1: YES, 0: NO) | % inhibition, Replicate A [1] [%] | % inhibition, Replicate B [1] [%] | IC50 [1, 3] [nM] | IC50 (HepG2 cells) [nM] | Unified cytotox (HepG2 cells; [4]) [µM] | IC50 [2] [nM] | Is compound selective in assay? Pb ODA active? [1] | IC50 [1, 5] [nM] | Pb ODA (this manuscript) HepG2 cytoxicity (HepG2 cells) [µM] | IC50 [1, 6] [nM] | Unified cytotox (HepG2 cells; [7]) [µM] | HepG2 cytoxicity (Pb ODA, this manuscript) (HepG2 cells) [µM] |
| --- | --- | --- | --- | --- | --- | --- | --- | --- | --- | --- | --- | --- | --- |
| CC(C)Nc1nc(NC2CCCCC2)nc(N2CCCCCCC2)n1 [TCMDC-139688] | 1 (1: YES) | 67.11 | 52.41 | 3260 | 33100 | 33.11 | 2240 |  |  |  |  |  |  |
| Br.CC1(C)NC(N)=NC(=N)N1OCCSc1ccccc1 [TCMDC-131670] |  | 44.97 | 56.76 | 2860 | 1 |  | < 0.2 | 0 (key: 1: YES; 0: NO) | 2860 | 0.001 |  |  |  |
| CN(C)c1ccc(C=CC(=O)NC(=O)c2ccccc2O)cc1 [TCMDC-125391] | 1 (1: YES) | 87.61 | 62.62 | 210 | 100000 | 100.00 | 123 |  |  |  |  |  |  |
| COc1ccc(NS(=O)(=O)c2cc(NC(=O)Cn3ccccc3=O)ccc2N2CCCCC2)cc1 [TCMDC-124874] | 1 (1: YES) | 66.12 | 73.52 | 1270 | 100000 | 100.00 | 489 |  |  |  | 1270 |  |  |
| Cc1[nH]c(C)c(-c2ccc(OCc3ccc(OC(F)(F)F)cc3)nc2)c(=O)c1Cl [TCMDC-135271] | 1 (1: YES) | 71.19 | 76.52 | 1070 | 100000 |  | 67 |  |  |  | 1070 | 100.00 |  |
| C=Cc1ccc(-c2c(C)[nH]c(C)c(Br)c2=O)cc1 [TCMDC-135433] |  | 31.67 | 64.44 | 1240 | 57500 |  | 433 | 1 (key: 1: YES; 0: NO) | 1240 | 57.54 |  |  |  |
| Cc1[nH]c(C)c(-c2ccc(OCc3cccc(C(F)(F)F)c3)nc2)c(=O)c1Br [TCMDC-135656] | 1 (1: YES) | 92.61 | 102.80 | 106 | 8610 |  | 41 |  |  |  | 110 | 8.61 | 8.61 |
| COc1nc2c(CCN3CCC(NCc4ccc5c(c4)NCCO5)CC3)c(Cl)cnc2cc1F.Cl [TCMDC-135768] |  | 14.93 | 54.54 | 3540 | 14400 |  | 584 | 0 (key: 1: YES; 0: NO) | 3540 | 14.45 |  |  |  |
| Cc1nc(C)c(-c2ccc(Oc3cc(Cl)cc(Cl)c3)cc2)c(O)c1Cl [TCMDC-137391] |  | 91.21 | 90.22 | 311 | 1.7 |  | 1.1 | 0 (key: 1: YES; 0: NO) | 310 | 0.0017 |  |  |  |
| Cc1nc(C)c(-c2ccc(Oc3ccc(Cl)c(Cl)c3)cc2)c(O)c1Br [TCMDC-137397] | 1 (1: YES) | 88.28 | 102.35 | 90 | 19500 |  | 88 |  |  |  |  | 19.50 | 19.50 |
| Br.CC(CCON1C(N)=NC(N)=NC1(C)C)c1ccc(Cl)cc1 (stereo not shown) [TCMDC-131721] |  | 71.36 | 33.21 | 9590 | 1 |  | < 0.2 | 0 (key: 1: YES; 0: NO) | 9590 | 0.001 |  |  |  |
| Cc1[nH]c(C)c(-c2ccc(Oc3ccc(F)cc3)cc2)c(=O)c1Cl [TCMDC-134728] | 1 (1: YES) | 96.35 | 103.17 | 49 | 56200 |  | 19 |  |  |  | 50 | 56.23 | 56.23 |
| Cc1nc(C)c(-c2ccc(Oc3ccc(OC(F)(F)F)cc3)cc2)c(OC(=O)c2ccc(CN(C)C)cc2)c1Cl [TCMDC-137382] |  | 93.07 | 108.44 | 462 | 24600 |  | 127 | 1 (key: 1: YES; 0: NO) | 460 | 24.55 |  |  |  |
| COc1ccc(C=NNc2nc(O)cc(-c3ccccc3)n2)cc1OC [TCMDC-124217] | 1 (1: YES) | 58.99 | 66.09 | 497 | 58200 | 58.21 | 630 |  |  |  | 500 |  |  |
| Cc1[nH]c(C)c(-c2ccc(C(=O)c3ccc(Cl)cc3)cc2)c(=O)c1Br [TCMDC-137407] |  | 83.43 | 91.19 | 78 | 44700 |  | 56 | 1 (key: 1: YES; 0: NO) | 80 | 44.67 |  |  |  |
| CCn1c(C)cc(C=C2SC(=Nc3ccccc3)NC2=O)c1C [TCMDC-124456] | 1 (1: YES) | 41.94 | 67.52 | 1000 | 97300 | 97.27 | 1700 |  |  |  | 1010 |  |  |
| COc1ccc(Cn2ccc3c4c(N)nc(N)nc4ccc32)cc1 [TCMDC-139862] | 0 (0: NO) | 43.74 | 74.79 | 315 | 11 |  | < 0.2 |  |  |  | 320 | 0.011 | 0.011 |
| Br.CC(CON1C(N)=NC(N)=NC1(C)C)c1ccc(Cl)cc1Cl (stereo not shown) [TCMDC-131687] | 0 (0: NO) | 63.61 | 60.22 | 2100 | 1 |  | 39 |  |  |  | 2100 | 0.001 | 0.001 |
| COc1ccc2nccc([C@@H](O)CN3CCC(NC(=O)c4cc5c(F)cc(F)cc5[nH]4)CC3)c2c1.CS(=O)(=O)O [TCMDC-140781] | 1 (1: YES) | 60.81 | 64.63 | 1000 | 11200 |  | 301 |  |  |  | 1000 | 11.22 | 11.22 |
| COc1cc(-c2nc(C(C)(C)CN)[nH]c2-c2ccncc2)ccc1Br.Cl [TCMDC-140674] |  | 75.42 | 38.48 | 1320 | 39800 |  | 3120 | 1 (key: 1: YES; 0: NO) | 1320 | 39.81 |  |  |  |
| CC(=O)Oc1c(Cl)c(C)nc(C)c1-c1ccc(Oc2ccc(Cl)cc2)cc1 [TCMDC-137381] |  | 96.93 | 129.91 | 98 | 2630 |  | 34 | 1 (key: 1: YES; 0: NO) | 100 | 2.63 |  |  |  |
| C=C[C@H]1CN(CCCCCCC)CC[C@H]1CC(=O)Nc1cnnc2ccc(OC)cc12.O=C(O)C(=O)O [TCMDC-139791] | 1 (1: YES) | 17.33 | 54.49 | 2770 | 33900 | 33.88 | 276 |  |  |  | 2770 |  |  |
| COc1ccc2ncc(C#N)c(CCN3C4CCC3CC(NCc3ccc5c(n3)NC(=O)CS5)C4)c2c1.Cl (stereo not shown) [TCMDC-135180] | 0 (0: NO) | 66.14 | 72.52 | 3070 | 6460 |  | 630 |  |  |  | 3070 | 6.46 | 6.46 |
| Br.CC1(C)NC(N)=NC(=N)N1OCCCOc1cccc(Cl)c1 [TCMDC-131762] |  | 47.79 | 53.67 | 2100 | 1 |  | < 0.2 | 0 (key: 1: YES; 0: NO) | 2100 | 0.001 |  |  |  |
